# Results as given in BindingDB's records for patent US20250313563 (The Broad Institute, 2025).
# “And” between values parts separate entries of the source, which are not always exact repeats. Identical values can stand only once.
# Legend:
# [1] = biological target: Glycogen synthase kinase-3 alpha (Homo sapiens, UniProt P49840); assay: TR-FRET Assay
# In short: (§1)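 Compound was preincubated 30 min in assay buffer before the kinase reaction, which was quenched with EDTA. Phosphorylation was detected by TR-FRET after adding a solution of 40 nM streptavidin-d2 and 2 nM Tb-labelled anti-pSer641 antibody.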
# [2] = biological target: Glycogen synthase kinase-3 beta (Homo sapiens, UniProt P49841); assay: TR-FRET Assay
# Glycogen synthase kinase-3 beta, sequence (P49841 whole entry): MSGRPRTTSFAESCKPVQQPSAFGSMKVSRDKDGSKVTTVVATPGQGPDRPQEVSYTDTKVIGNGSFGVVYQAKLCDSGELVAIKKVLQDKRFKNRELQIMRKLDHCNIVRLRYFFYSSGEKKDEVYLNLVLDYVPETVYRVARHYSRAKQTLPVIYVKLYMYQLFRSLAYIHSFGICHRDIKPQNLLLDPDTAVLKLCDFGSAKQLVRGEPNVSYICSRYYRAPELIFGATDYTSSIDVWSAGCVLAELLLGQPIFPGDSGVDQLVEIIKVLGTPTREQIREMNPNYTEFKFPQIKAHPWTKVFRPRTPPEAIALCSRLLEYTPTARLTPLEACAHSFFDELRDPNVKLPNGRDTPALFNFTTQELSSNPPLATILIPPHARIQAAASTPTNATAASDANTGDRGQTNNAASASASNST
# In short: as §1
# Glycogen synthase kinase-3 alpha, sequence (P49840 whole entry): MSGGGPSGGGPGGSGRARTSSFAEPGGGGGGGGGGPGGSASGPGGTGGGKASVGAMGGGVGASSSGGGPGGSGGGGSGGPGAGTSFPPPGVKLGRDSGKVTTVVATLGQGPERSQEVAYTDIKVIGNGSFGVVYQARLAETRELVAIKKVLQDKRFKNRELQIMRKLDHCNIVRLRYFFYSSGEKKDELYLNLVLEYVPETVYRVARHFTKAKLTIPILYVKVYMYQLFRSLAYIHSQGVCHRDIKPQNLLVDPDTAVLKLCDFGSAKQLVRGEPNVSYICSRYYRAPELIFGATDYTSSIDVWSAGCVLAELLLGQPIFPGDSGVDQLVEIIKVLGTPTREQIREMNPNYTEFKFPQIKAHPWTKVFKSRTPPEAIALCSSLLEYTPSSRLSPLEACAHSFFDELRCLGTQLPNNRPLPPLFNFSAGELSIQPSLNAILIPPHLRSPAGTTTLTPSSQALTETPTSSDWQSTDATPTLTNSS
SMILES,IC50 [1],IC50 [2]
"CC[C@]1(c2cccc(N3CCOCC3)c2)C2=C(CC(C)(C)CC2=O)NC2N=NC(C)=C21 (some centres not stated) [US20250313563, Compound 889581]",< 100 nM,< 100 nM
"CC1(C)CC(=O)C2=C(C1)NC1=C(CN=N1)[C@]21CCN(S(=O)(=O)c2cccc(F)c2)C1 [US20250313563, Compound 943488]",< 100 nM,< 100 nM
"Cn1nccc1-c1cccc2c1CCC[C@@]21C2=CN=NC2NC2=C1C(=O)CC(C)(C)C2 (some centres not stated) [US20250313563, Compound 945551]",< 100 nM,< 100 nM
"CCC1(c2cccc(C(F)F)c2)C2=C(CC(C)(C)NC2=O)NC2N=NC(C(F)(F)F)=C21 (configuration not stated) [US20250313563, Compound 948305]",< 100 nM,< 100 nM
"CCC1(c2cccc(CN(C)C(=O)COC)c2)C2=CN=NC2NC2=C1C(=O)CC(C)(C)C2 (configuration not stated) [US20250313563, Compound 865196]",100 to 1000 nM,> 5000 nM
"CCC1(c2cccc(N(C)C(=O)COC)c2)C2=CN=NC2NC2=C1C(=O)CC(C)(C)C2 (configuration not stated) [US20250313563, Compound 889580]",< 100 nM,100 to 1000 nM
"Cc1cc(-c2cccc3c2CCC[C@]32C3=CN=NC3NC3=C2C(=O)CC(C)(C)C3)ccn1 (some centres not stated) [US20250313563, Compound 945550]",100 to 1000 nM,> 5000 nM
"CC1(C)CC(=O)C2=C(C1)NC1=C(CN=N1)C21CCC(C(=O)N2CCCC2)CC1 (configuration not stated) [US20250313563, Compound 945394]",100 to 1000 nM,1000 to 5000 nM
"CC[C@]1(c2cccc(C(F)(F)F)c2)C2=CN=NC2NC2=C1C(=O)C[C@H](C)C2 (some centres not stated) [US20250313563, Compound 810450]",< 100 nM and 100 to 1000 nM,< 100 nM and 1000 to 5000 nM
"CCC1(c2cccc(N3CCCC3)c2)C2=C(CC(C)(C)CC2=O)NC2N=NC(C)=C21 (configuration not stated) [US20250313563, Compound 874314]",< 100 nM,< 100 nM
"Cc1cccc(C(=O)N2CC3(C2)CC2(CO3)C3=C(N=NC3)NC3=C2C(=O)CC(C)(C)C3)c1C (configuration not stated) [US20250313563, Compound 947284]",< 100 nM,100 to 1000 nM
"CC[C@@]1(c2cccc(-c3ccnc(C)c3)c2)C2=CN=NC2NC2=C1C(=O)C[C@H](C)C2 (some centres not stated) [US20250313563, Compound 932657]",< 100 nM,1000 to 5000 nM
"CC[C@@]1(c2cccc(CN(C)c3ccnc(C)c3)c2)C2=CN=NC2NC2=C1C(=O)CC(C)(C)C2 (some centres not stated) [US20250313563, Compound 932665]",> 5000 nM,> 5000 nM
"CC1(C)CC(=O)C2=C(NC3=C(CN=N3)[C@]23CC[C@@H](C(F)(F)F)CC3)[C@H]1F [US20250313563, Compound 918285]",< 100 nM and 1000 to 5000 nM,100 to 1000 nM and > 5000 nM
"CCC1(c2cccc(C(F)(F)F)c2)C2=C(N=NC2)NC2=C1C(=O)NC2C (configuration not stated) [US20250313563, Compound 917295]",100 to 1000 nM,1000 to 5000 nM
"CC[C@]1(c2cccc(Br)c2)C2=CN=NC2NC2=C1C(=O)CC(C)(C)C2 (some centres not stated) [US20250313563, Compound 790733]",100 to 1000 nM,1000 to 5000 nM

SMILES,IC50 [1],IC50 [2]
"CC[C@@]1(c2cccc(N(C)C(=O)c3ccn(C)n3)c2)C2=CN=NC2NC2=C1C(=O)CC(C)(C)C2 (some centres not stated) [US20250313563, Compound 929442]",< 100 nM,100 to 1000 nM
"CC(C)(C)CC1=C2C(N=N1)NC1=C(C(=O)CC(C)(C)C1)[C@@]21COc2ccccc21 (some centres not stated) [US20250313563, Compound 117093]",1000 to 5000 nM,100 to 1000 nM
"CC1(C)CC(=O)C2=C(C1)NC1=C(CN=N1)C21COC2(CN(C(=O)C3CC3)C2)C1 (configuration not stated) [US20250313563, Compound 947297]",< 100 nM,< 100 nM
"CC1(C)CC(=O)C2=C(C1)NC1=C(CN=N1)C21COC2(CN(C(=O)C3CCCCC3)C2)C1 (configuration not stated) [US20250313563, Compound 947291]",< 100 nM,100 to 1000 nM
"CCC1(c2cccc(C(F)(F)F)c2)C2=CN=NC2NC2=C1C(=O)N(C)C(C)(C)C2 (configuration not stated) [US20250313563, Compound 823130]",< 100 nM,100 to 1000 nM
"CC1(C)CC(=O)C2=C(C1)NC1=C(CN=N1)C21CCN(S(=O)(=O)c2cnn3c2CCCC3)CC1 [US20250313563, Compound 947474]",< 100 nM,< 100 nM
"CCC1(c2cccc(N3CCCCC3)c2)C2=CN=NC2NC2=C1C(=O)CC(C)(C)C2 (configuration not stated) [US20250313563, Compound 801320]",100 to 1000 nM,100 to 1000 nM
"CC[C@]1(c2cccc(C(F)(F)F)c2)C2=CN=NC2NC2=C1C(=O)N(C(C)C)CC2 (some centres not stated) [US20250313563, Compound 857336]",< 100 nM,100 to 1000 nM
"CC[C@]1(c2cccc(C(F)(F)F)c2)C2=CN=NC2NC2=C1C(=O)N[C@H](C(C)(C)C)C2 (some centres not stated) [US20250313563, Compound 945920]",< 100 nM and 100 to 1000 nM,100 to 1000 nM and 1000 to 5000 nM
"CC(C)C(=O)N1CC2(C1)CC1(CO2)C2=C(N=NC2)NC2=C1C(=O)CC(C)(C)C2 (configuration not stated) [US20250313563, Compound 947304]",< 100 nM,100 to 1000 nM
"CCC1(CC)C2=C(CC(C)(C)CC2=O)NC2=C1C(C)N=N2 (configuration not stated) [US20250313563, Compound 786061]",100 to 1000 nM,> 1670 nM
"C[C@H]1CC(=O)C2=C(C1)NC1=C(CN=N1)[C@]2(C)c1ccccc1 [US20250313563, Compound 789332]",100 to 1000 nM,100 to 1000 nM
"CC[C@@]1(c2cccc(-c3ccnc4ccc(OC)cc34)c2)C2=CN=NC2NC2=C1C(=O)NC(C)(C)C2 (some centres not stated) [US20250313563, Compound 948527]",< 100 nM,< 100 nM
"CC1(C)CC(=O)C2=C(C1)NC1=C(CN=N1)C21CCC(n2cnnc2)CC1 (configuration not stated) [US20250313563, Compound 943894]",< 100 nM,100 to 1000 nM
"CCC1(c2ccccc2)C2=C(N=NC2)NC2=C1C(=O)CC(C)(C(F)(F)F)C2 (configuration not stated) [US20250313563, Compound 816796]",100 to 1000 nM,1000 to 5000 nM
"Cn1cncc1-c1cccc([C@@]2(C)C3=C(CC(C)(C)CC3=O)NC3=C2C(CC(C)(C)C)N=N3)c1 (some centres not stated) [US20250313563, Compound 126015]",> 5000 nM,> 5000 nM

# Continued, values first:
IC50 [1],IC50 [2],SMILES
100 to 1000 nM,1000 to 5000 nM,"CC[C@@]1(c2cccc(-c3cnn(CC4CCOC4)c3)c2)C2=CN=NC2NC2=C1C(=O)NC(C)(C)C2 (some centres not stated) [US20250313563, Compound 951836]"
< 100 nM and 1000 to 5000 nM,100 to 1000 nM and > 5000 nM,"CC[C@@]1(c2cccc(-c3cnn4ccncc34)c2)C2=CN=NC2NC2=C1C(=O)NC(C)(C)C2 (some centres not stated) [US20250313563, Compound 952565]"
100 to 1000 nM,1000 to 5000 nM,"CC[C@@]1(c2cccc(N(C)c3ncccn3)c2)C2=C(CC(C)(C)NC2=O)NC2N=NC(Cl)=C21 (some centres not stated) [US20250313563, Compound 951618]"
< 100 nM and 1000 to 5000 nM,< 100 nM and 1000 to 5000 nM,"Cn1cc(S(=O)(=O)N2CC[C@]3(C2)C2=C(N=NC2)NC2=C3C(=O)CC(C)(C)C2)cn1 [US20250313563, Compound 951726]"
< 100 nM and 100 to 1000 nM,< 100 nM and 100 to 1000 nM,"CCC1(c2cccc(-c3cc(C)nnc3C)c2)C2=C(CC(C)(C)NC2=O)NC2N=NC(C(F)(F)F)=C21 (configuration not stated) [US20250313563, Compound 949174]"
< 100 nM and 100 to 1000 nM,< 100 nM and 1000 to 5000 nM,"CCC1(c2cccc(N(C)c3ncccn3)c2)C2=C(CC(C)(C)NC2=O)NC2N=NC(F)=C21 (configuration not stated) [US20250313563, Compound 949172]"
100 to 1000 nM,1000 to 5000 nM,"CC1CCC12C1=C(N=NC1)NC1=C2C(=O)CC(C)(C)C1 (configuration not stated) [US20250313563, Compound 949640]"
100 to 1000 nM,1000 to 5000 nM,"CC[C@@]1(c2cccc(-c3cnn(-c4ccccn4)c3)c2)C2=CN=NC2NC2=C1C(=O)NC(C)(C)C2 (some centres not stated) [US20250313563, Compound 952566]"
< 100 nM,< 100 nM,"CCC1(c2cccc(Oc3ncccn3)c2)C2=C(CC(C)(C)NC2=O)NC2N=NC(C(F)(F)F)=C21 (configuration not stated) [US20250313563, Compound 950323]"
< 100 nM,100 to 1000 nM,"CC[C@@]1(c2cccc(C(F)(F)F)c2)C2=CN=NC2NC2=C1C(=O)C[C@@]1(CCN(C)C1=O)C2 (some centres not stated) [US20250313563, Compound 950326]"
< 100 nM,100 to 1000 nM,"CC[C@@]1(c2cccc(-c3cnn(C)c3F)c2)C2=CN=NC2NC2=C1C(=O)NC(C)(C)C2 (some centres not stated) [US20250313563, Compound 950562]"
1000 to 5000 nM,> 5000 nM,"CC[C@@]1(c2cccc(C(F)(F)F)c2)C2=CN=NC2NC2=C1C(=O)N(c1ccn(C)n1)CC2 (some centres not stated) [US20250313563, Compound 949836]"
> 5000 nM,> 5000 nM,"CC[C@]1(c2cccc(-c3cnn(C)c3C#N)c2)C2=CN=NC2NC2=C1C(=O)NC(C)(C)C2 (some centres not stated) [US20250313563, Compound 948814]"
1000 to 5000 nM,> 5000 nM,"CC[C@]1(c2cccc(-c3cc(C)ncc3F)c2)C2=C(CC(C)(C)NC2=O)NC2N=NC(C)=C21 (some centres not stated) [US20250313563, Compound 949327]"
